Legend:
Assay in all cases: relative viability (nuclei count vs DMSO), 5 days (fraction); higher = more cells survive
Sulindac + Bortezomib = compound: CC1=C(CC(=O)O)c2cc(F)ccc2/C1=C\c1ccc([S+](C)[O-])cc1 [Sulindac] + CC(C)C[C@H](NC(=O)[C@H](Cc1ccccc1)NC(=O)c1cnccn1)B(O)O [Bortezomib] (partner 0.002 µM)
Procedure, shortened: (§1)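 Lung cancer cell lines were seeded in 1536-well plates and dosed by pin tool the next day, with either a single drug or a fixed anchor-drug dose combined with five library-drug doses (not always all listed) spaced in √10 steps. Five days later, one step fixed the cells and stained their nuclei (final 0.05% Triton X-100, 1% formaldehyde, 1 ug/ml Hoechst), and nuclei were counted on 4× images. Relative viability is the nuclei count in treated wells divided by the count in vehicle wells, and each value is the median of duplicate plates.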

Sulindac + Linsitinib = compound: CC1=C(CC(=O)O)c2cc(F)ccc2/C1=C\c1ccc([S+](C)[O-])cc1 [Sulindac] + C[C@]1(O)C[C@@H](c2nc(-c3ccc4ccc(-c5ccccc5)nc4c3)c3c(N)nccn32)C1 [Linsitinib] (partner 1 µM)
Procedure, shortened: as §1

Sulindac + Phenformin = compound: CC1=C(CC(=O)O)c2cc(F)ccc2/C1=C\c1ccc([S+](C)[O-])cc1 [Sulindac] + N=C(N)NC(=N)NCCc1ccccc1 [Phenformin] (partner 250 µM)
Procedure, shortened: as §1

[1] = compound: O=c1[nH]cc(F)c(=O)[nH]1 [5-Fluorouracil] + Cc1nc(Nc2ncc(C(=O)Nc3c(C)cccc3Cl)s2)cc(N2CCN(CCO)CC2)n1 [Dasatinib] (partner 0.075 µM)
Procedure, shortened: as §1

| Cell Line | relative viability (Sulindac + Bortezomib; first compound 0.253 µM) | relative viability (Sulindac + Bortezomib; first compound 0.8 µM) | relative viability (Sulindac + Bortezomib; first compound 2.53 µM) | relative viability (Sulindac + Bortezomib; first compound 8 µM) | relative viability (Sulindac + Linsitinib; first compound 0.253 µM) | relative viability (Sulindac + Linsitinib; first compound 0.8 µM) | relative viability (Sulindac + Linsitinib; first compound 2.53 µM) | relative viability (Sulindac + Linsitinib; first compound 8 µM) | relative viability (Sulindac + Phenformin; first compound 0.08 µM) | relative viability (Sulindac + Phenformin; first compound 0.253 µM) | relative viability (Sulindac + Phenformin; first compound 0.8 µM) | relative viability (Sulindac + Phenformin; first compound 2.53 µM) | relative viability (Sulindac + Phenformin; first compound 8 µM) | relative viability ([1]; first compound 0.02 µM) | relative viability ([1]; first compound 0.2 µM) | relative viability ([1]; first compound 0.6325 µM) | relative viability ([1]; first compound 2 µM) | relative viability (Sulindac + Bortezomib; first compound 0.08 µM) | relative viability (Sulindac + Linsitinib; first compound 0.08 µM) |
| --- | --- | --- | --- | --- | --- | --- | --- | --- | --- | --- | --- | --- | --- | --- | --- | --- | --- | --- | --- |
| NCI-H1666 | 0.724 | 0.729 | 0.767 | 0.937 | 0.797 | 0.854 | 0.779 | 0.854 | 0.564 | 0.629 | 0.561 | 0.529 | 0.631 | 0.848 | 0.555 | 0.4 | 0.391 | – | – |
| LOU-NH91 | 0.516 | 0.601 | 0.531 | 0.459 | 0.916 | 0.858 | 0.933 | 1.09 | 0.708 | 0.68 | 0.681 | 0.717 | 0.853 | 0.566 | 0.598 | 0.501 | 0.304 | 0.554 | 0.877 |
| LXF-289 | 1.04 | 0.991 | 1.04 | 0.974 | 0.984 | 0.931 | 1.05 | 0.993 | 0.551 | 0.559 | 0.491 | 0.517 | 0.559 | 0.192 | 0.202 | 0.152 | 0.154 | 1.06 | 1.02 |
| NCI-H1299 | 1.04 | 1.04 | 1.03 | 1.05 | 1.18 | 0.898 | 1.02 | 1.01 | – | – | – | – | – | – | – | – | – | 1.09 | 1.14 |
| HARA | 1.09 | – | 1.14 | 1.44 | 1.09 | – | 1.06 | 0.851 | 0.56 | 0.523 | 0.29 | 0.468 | 0.553 | 0.274 | 0.388 | 0.232 | 0.192 | 1.2 | 1.23 |
| LU99A | 1.09 | 1.11 | 0.91 | 1.19 | 0.524 | 0.493 | 0.499 | 0.659 | 0.86 | 0.853 | 0.83 | 0.827 | 1.11 | 0.575 | 0.655 | 0.567 | 0.4 | 1.22 | 0.578 |
| 201T | 1.1 | 1.06 | 1.12 | 1.08 | 1.04 | 1.1 | 1.02 | 1.01 | 0.478 | 0.435 | 0.314 | 0.451 | 0.486 | 0.592 | 0.555 | 0.348 | 0.284 | 1.12 | 1.06 |
| HCC-827 | 1.13 | 0.93 | 1.06 | 1.11 | 0.939 | 0.988 | 0.937 | 0.967 | 0.395 | 0.367 | 0.414 | 0.413 | 0.426 | 0.254 | 0.335 | 0.305 | 0.337 | 1.01 | 0.932 |
| NCI-H1703 | 0.394 | 0.225 | 0.457 | 0.284 | 0.873 | 0.561 | 0.761 | 1.15 | – | – | – | – | – | – | – | – | – | 0.303 | 0.673 |
| NCI-H1975 | 0.461 | – | 0.334 | 0.441 | 1.03 | – | 1.07 | 1.05 | 0.27 | 0.404 | 0.365 | 0.403 | 0.457 | 0.363 | 0.387 | 0.307 | 0.231 | 0.387 | 1.14 |

From the supplement of paper PMC10307832
